Experimental data reported in patent US11679096B1, “Composition and method of treatment of elevated ApoE gene expression related health issues” (priority 2022, dated 2023).

Columns and labels:
[1] = test system: ApoE gene transcripts in Alzheimer disease (AD) fibroblasts; test: Effects of individual components on ApoE gene transcription in AD fibroblasts (young and old donors, not separated); format: cell-based, human; conditions: 1 ug/ml, overnight
[2] = test system: ApoE gene transcripts in NHDF; test: ApoE gene transcription (RT-PCR) in normal human dermal fibroblasts; format: cell-based; conditions: overnight
[3] = test system: MCF7 estrogen-dependent breast cancer cells; test: In vitro MCF7 cells proliferation (E-SCREEN) assay, MTT; format: cell-based, human; conditions: β-17-estradiol 0.5 μg/ml, 6 days
Method: In vitro MCF7 cells proliferation (E-SCREEN) assay: MCF-7 cells (1×10^3 cells/well of a 96-well plate) were cultured with different micronutrients and plant extracts (0.5-5 μg/ml) with added β-17-estradiol (0.5 μg/ml) for 6 days at 37° C. Thereafter, medium in each well, including control wells, was replaced with 150 μl of tetrazolium MTT (3-(4, 5-dimethylthiazolyl-2)-2,5-diphenyltetrazolium bromide) ([…]). Wells that received DMSO only were used as negative control whereas that cells that receive only β-17-estradiol were use as positive control. Next, cells were incubated for 3 h at 37° C., the supernatant with MTT was removed, and the adherent cells were rinsed with PBS. Next, 150 μl of isopropanol was added to each well and the absorbance was measured at 570 nm using the microplate reader. Percentage of MTT reduction by metabolically active cell to purple formazan (reflecting cell proliferation rate) was calculated as following equation: Proliferation rate=[(ODsample-ODcontrol)/ODcontrol].
We used MCF7 cancer cells which are epithelial cells isolated from the breast tissue of a patient with metastatic adenocarcinoma and depend on estrogen to proliferate. […]

[4] = test system: ApoE gene transcripts in lung cancer cell line A549; test: ApoE gene transcription (RT-PCR) in lung cancer cells with IL-1β; format: cell-based, human; conditions: A549, IL-1 15 pg/ml; Mix 1 4 μg/ml, estrogen 5 nM, genistein 1 μg/ml
Method: (§1) ApoE and iNOS determination: Fibroblasts from Alzheimer disease (AD) […] (AG07887), and […] (AG08629) and/or Normal Human fibroblasts (NHDF) and/or lung cancer cell line A549 were grown on DMEM/F12 without phenol red (Gibco, USA). Media was supplemented with charcoal stripped, sterile-filtered 10% fetal bovine serum (Sigma-Millipore, USA Origen), and 1% penicillin-streptomycin.
(§2) Cells were separated and splatted in 2 cm cell culture dishes and subjected to none or treated with IL-1βat 15 pg/ml, in the presence of Basic Mix (1 μg/ml), Mix 1-1 (1 μg/ml), Mix 1-2 (2 μg/ml), genistein (1 μg/ml), and estrogen E2 (5 nM) as indicated in each experiment. Treated cells were incubated for two hours or overnight followed by RNA isolation and purification for RT-PCR analysis.
(§3) Total RNA was obtained by standard method RNeasy* Plus, (Qiagen, Germany) lysing cells with RLT Plus buffer according to the manufacturer's instructions. Equal amount of RNA extracted from each treated lysate was reverse transcribed in 20 microliters reactions with RT-QuantiTech kit (Qiagen, Germany). […] Amplification in 40 cycles and Ct quantification was carried out in CFX-Connect PCR-system from BioRad. Relative expression of the target gene data was analyzed using delta Ct method and compared to delta Ct of expression of a reference gene. […]

[5] = test system: iNOS gene transcripts in lung cancer cell line A549; test: iNOS expression (RT-PCR) in lung cancer cells with IL-1β; format: cell-based, human
Method: as §1, §2, §3

[6] = test system: ApoE gene transcripts in AD fibroblasts (AG07887); test: ApoE gene transcription (RT-PCR) in fibroblasts from young Alzheimer's disease donor; format: cell-based, human; conditions: with IL1b, Mix 1 at 1 mcg/ml, estradiol 5 nM
Method: as §1, §2, §3

[7] = test system: ApoE gene transcripts in AD fibroblasts (AG08629); test: ApoE gene transcription (RT-PCR) in fibroblasts from old Alzheimer's disease donor; format: cell-based, human; conditions: with IL1b, Mix 1 at 1 mcg/ml, Basic Mix 1 ug/ml, estradiol 5 nM
Method: as §1, §2, §3

[8] = pro-inflammatory conditions (IL1b 15 pg/ml)
[9] = normal conditions (without IL1β)
[10] = pro-inflammatory condition (with IL1β)

O=c1c(-c2ccc(O)cc2)coc2cc(O)ccc12 [Daidzein]
effect of individual compounds on ApoE transcript [1, 8]: ApoE increasing effects

Cc1c(C)c2c(c(C)c1O)CC[C@@](C)(CCC[C@H](C)CCC[C@H](C)CCCC(C)C)O2 [Vitamin E, D-alpha-tocopherol]
effect on ApoE expression [2, 9]: moderate lowering effect

C[C@]12CC[C@@H]3c4ccc(O)cc4CC[C@H]3[C@@H]1CC[C@@H]2O [estrogen, β-17-estradiol]
MCF7 proliferation rate, higher compared to normal control [3]: about 1.2 folds | effect on ApoE transcripts in human lung cancer cells [4]: inhibitory effect | increase of iNOS expression over control ([5]; A549, IL-1 15 pg/ml, estrogen 5 nM): more than 20 times | decrease of ApoE transcription [6]: equal to control | decrease of ApoE transcript compared to no treatment control [7]: about 3 times

O=c1c(-c2ccc(O)cc2)coc2cc(O)cc(O)c12 [genistein]
effect on ApoE transcripts in human lung cancer cells [4]: inhibitory effect | lowering of iNOS transcript ([5]; A549, pro-inflammatory conditions (IL1b), 1 mcg/ml): comparable | effect of individual compounds on ApoE transcript [1, 8]: slight ApoE lowering effect

O[C@H]1[C@H](O)[C@@H](O)[C@H](O)[C@@H](O)[C@H]1O [inositol, Inositol]
effect on ApoE expression [2, 10]: comparable

O=c1c(O)c(-c2ccc(O)c(O)c2)oc2cc(O)cc(O)c12 [quercetin]
effect of individual compounds on ApoE transcript ([1]; normal conditions (without IL1b)): lowering effect | effect of individual compounds on ApoE transcript [1, 8]: ApoE increasing effects

CC(C)(CO)[C@@H](O)C(=O)NCCC(=O)O [vitamin B5, Pantothenic acid]
effect on ApoE expression [2, 9]: moderate lowering effect

phosphatidyl choline
effect on ApoE expression [2, 10]: comparable
